# Counter-ions that a name gives are not always drawn.
# Molecular target: T1, γ-Secretase (Homo sapiens, UniProt P49768)
# T1 construct: transfected H4 (human neuroglioma) cells stably expressing constructs containing wild-type and mutant forms of β-APP; endogenous in cells; host or cells: H4 human neuroglioma cells, stably transfected with beta-APP (the substrate, not the enzyme)
# Assay: Inhibition of γ-secretase: ELISA of β-AP made by transfected H4 cells in culture
# Assay type: cell-based
# Conditions: H4 (human neuroglioma) cells expressing β-APP (Swedish variant typically), approximately 16 hours incubation, β-AP in conditioned medium by ELISA
# From the text: Production and detection of β-AP made by cells in culture. The use of transfected H4 (human neuroglioma) cells stably expressing constructs containing wild-type and mutant forms of β-APP have been used to identify inhibitors of β-AP production. The Swedish variant of β-APP produces 5-7 fold more β-AP than the wild type and is typically used due to its enhanced signal. […] The capture antibody is typically a mouse monoclonal (IgG1/kβ-APPa). The antibody recognizes the carboxyl terminal epitope of β-AP. The specificity of the capture antibody ensures measurement of β-AP without interference by other secreted β-APP fragments that share amino acid sequence (β-AP1-16) with β-AP. The detecting antibody is typically an affinity purified rabbit polyclonal antibody, specific for the amino terminus of β-AP. In the cell-based assay conditioned medium from H4 cells is tested by ELISA for the quantity of β-AP present. The cell-based assay can be used to identify compounds that inhibit β-AP production. The assay should detect agents that inhibit cleavage at the β-secretase and/or the γ-secretase cleavage site as well as detecting any agent that interferes with the production and/or release of β-AP.
# A typical ELISA-based assay requires plating of the transfected cells at a density sufficient for the rapid detection of the secreted β-AP (experimentally predetermined for a particular stable cell population) in a 96-well format. Cells are plated for at least six hours prior to the introduction of the test compound at which time the growth medium is replaced by fresh medium containing the agent to be tested. Test agents may typically consist of synthetic compounds, secondary metabolites from bacterial or fungal fermentation extracts, or extracts from plant or marine samples. All synthetic agents are initially screened at doses ranging from 10-100 μM or in the case of extracts at sufficient dilution to minimize cytotoxicity. Incubation of the cells with the test agent will continue for approximately 16 hours at which time equal aliquots of media from each sample well is removed and placed into a previously prepared ELISA plate for β-AP quantitation. The ELISA is carried out in a manner described by others (Haass, et al., 1992; Hawlow and Lane, 1988) and the β-AP signal quantitated. Results are obtained by analysis of the ELISA plate following development and comparison to the mock treated cell populations and samples in which known amounts of β-AP were added to construct a standard concentration curve. […] If a compound is found to be active, then a dose response experiment is performed to determine the lowest dose of compound necessary to elicit the inhibition of the production of β-AP.
row,SMILES,Activity Rating (Inhibition of γ-Secretase)
1,"CSCCCNC(=O)[C@@H](C[C@H](O)[C@H](CC1CCCCC1)NCCCC(C)C)C(C)C (relative stereo) [Example 32, [αS-(αR*,γR*,δR*)]γ-hydroxy-α-(1-methylethyl)-δ-[(4-methylpentyl)amino]-N-[3-(methylthio)propyl]cyclohexanehexanamide hydrochloride]",+++ (+++ < = 10)
2,"CCCCNC(=O)[C@@H](C[C@H](O)[C@H](CC1CCCCC1)NCCC(C)CC)C(C)C (relative stereo) [Example 33, [αS-(αR*,γR*,δR*)]N-Butyl-γ-hydroxy-α-(1-methylethyl)-δ-[(3-methylpentyl)amino]cyclohexanehexanamide hydrochloride]",+++ (+++ < = 10)
3,"CCCCNC(=O)[C@@H](C[C@H](O)[C@H](CC1CCCCC1)NCCCCC(C)C)C(C)C (relative stereo) [Example 34, [αS-(αR*,γR*,δR*)]N-Butyl-γ-hydroxy-α-(1-methylethyl)-δ-[(5-methylhexyl)amino]cyclohexanehexanamide hydrochloride]",+++ (+++ < = 10)
4,"CCCCNC(=O)[C@@H](C[C@H](O)[C@H](CC1CCCCC1)NCCC(C)C)C(C)C (relative stereo) [Example 35, [αS-(αR*,γR*,δR*)]N-Butyl-γ-hydroxy-δ-[(3-methylbutyl)amino]-α-(1-methylethyl)cyclohexanehexanamide hydrochloride]",+++ (+++ < = 10)
5,"CCCCNC(=O)[C@@H](C[C@H](O)[C@H](CC1CCCCC1)NCc1cccc(C)c1)C(C)C (relative stereo) [Example 36, [αS-(αR*,γR*,δR*)]N-Butyl-γ-hydroxy-α-(1-methylethyl)-δ-[[(3-methylphenyl)methyl]amino]cyclohexanehexanamidehydrochloride]",+++ (+++ < = 10)
6,"CCCCNC(=O)[C@@H](C[C@H](O)[C@H](CC1CCCCC1)NCc1cccc(OC)c1)C(C)C (relative stereo) [Example 37, [αS-(αR*,γR*,δR*)]N-Butyl-γ-hydroxy-δ-[[(3-methoxyphenyl)methyl]amino]-α-(1-methylethyl)cyclohexanehexanamide hydrochloride]",++ (++ > 10 & < = 25)
7,"CCCCNC(=O)[C@@H](C[C@H](O)[C@H](CC1CCCCC1)NCc1ccc2ccccc2c1)C(C)C (relative stereo) [Example 38, [αS-(αR*,γR*,δR*)]N-Butyl-γ-hydroxy-α-(1-methylethyl)-δ-[[(2-naphthyl)methyl]amino]cyclohexanehexanamide hydrochloride]",+ (+ > 25 & < = 50 μM)
8,"CCCCNC(=O)[C@@H](C[C@H](O)[C@H](CC1CCCCC1)NCCOC(C)C)C(C)C (relative stereo) [Example 39, [αS-(αR*,γR*,δR*)]N-Butyl-γ-hydroxy-δ-[2-(1-methylethoxy)ethyl]amino]-α-(1-methylethyl)cyclohexanehexanamidehydrochloride]",+ (+ > 25 & < = 50 μM)
9,"CC(C)CNC(=O)[C@@H](C[C@H](O)[C@H](CC1CCCCC1)NC1CCC(C)CC1)C(C)C (relative stereo) [Example 40, [αS(αR*,γR*,δR*)]-γ-Hydroxy-δ-[(4-methylcyclohexyl)amino]-α-(1-methylethyl)-N-(2-methylpropyl)cyclohexanehexanamide]",+++ (+++ < = 10)
10,"CC(C)CCC(C)N[C@@H](CC1CCCCC1)[C@@H](O)C[C@H](C(=O)NCC(C)C)C(C)C (relative stereo) [Example 41, [αS(αR*,γR*,δR*)]-γ-Hydroxy-δ-[(1,4-dimethylpentyl)amino]-α-(1-methylethyl)-N-(2-methylpropyl)cyclohexanehexanamide hydrochloride]",+++ (+++ < = 10)
11,"CC(C)CNC(=O)[C@@H](C[C@H](O)[C@H](CC1CCCCC1)NC1CCCC(C)C1)C(C)C (relative stereo) [Example 42, [αS(αR*,γR*,δR*)]-γ-Hydroxy-δ-[(3-methylcyclohexyl)amino]-α-(1-methylethyl)-N-(2-methylpropyl)cyclohexanehexanamide]",+++ (+++ < = 10)
12,"CC(C)CNC(=O)[C@@H](C[C@H](O)[C@H](CC1CCCCC1)NC1CCC(C)C1)C(C)C (relative stereo) [Example 43, [αS(αR*,γR*,δR*)]-γ-Hydroxy-δ-[(3-methylcyclopentyl)amino]-α-(1-methylethyl)-N-(2-methylpropyl)cyclohexanehexanamide]",+++ (+++ < = 10)
13,"CCCCNC(=O)[C@@H](C[C@H](O)[C@H](CC1CCCCC1)NC1CCC(C(C)C)CC1)C(C)C (relative stereo) [Example 44, [αS(αR*,γR*,δR*)]-N-butyl-γ-hydroxy-α-(1-methylethyl)-δ-[[4-(1-methylethyl)cyclohexyl]amino]cyclohexanehexanamide hydrochloride]",+++ (+++ < = 10)
14,"CCCCCN[C@@H](CC1CCCCC1)[C@@H](O)C[C@H](C(=O)NCCCC)C(C)C (relative stereo) [Example 45, [αS(αR*,γR*,δR*)]-N-Butyl-γ-hydroxy-α-(1-methylethyl)-δ-(pentylamino)cyclohexanehexanamide hydrochloride]",+++ (+++ < = 10)
15,"CCCCNC(=O)[C@@H](C[C@H](O)[C@H](CC1CCCCC1)NCCCC1CC1)C(C)C (relative stereo) [Example 46, [αS(αR*,γR*,δR*)]-N-Butyl-δ-[(3-cyclopropyl)propyl]amino-γ-hydroxy-α-(1-methylethyl)cyclohexanehexanamide hydrochloride]",+++ (+++ < = 10)
16,"CCCCNC(=O)[C@@H](C[C@H](O)[C@H](CC1CCCCC1)NCCCC1CCCC1)C(C)C (relative stereo) [Example 47, [αS(αR*,γR*,δR*)]-N-Butyl-δ-[(3-cyclopentyl)propyl]amino-γ-hydroxy-α-(1-methylethyl)cyclohexanehexanamide hydrochloride]",+++ (+++ < = 10)
17,"CCCCNC(=O)[C@@H](C[C@H](O)[C@H](CC1CCCCC1)NCCC1CCCCC1)C(C)C (relative stereo) [Example 48, [αS(αR*,γR*,δR*)]-N-Butyl-δ-[(3-cyclohexyl)ethyl]amino-γ-hydroxy-α-(1-methylethyl)cyclohexanehexanamide hydrochloride]",+++ (+++ < = 10)
18,"CC(C)=CCCN[C@@H](CC1CCCCC1)[C@@H](O)C[C@H](C(=O)NCC(C)C)C(C)C (relative stereo) [Example 49, [αS(αR*,γR*,δR*)]-γ-hydroxy-α-(1-methylethyl)-δ-[(4-methyl-3-pentenyl)amino]-N -(2-methylpropyl)cyclohexanehexanamide]",+++ (+++ < = 10)
